Measurements: patent US20250059196A1 (SHANGHAI HANSOH BIOMEDICAL CO., LTD., priority 2021, published 2025)

What was measured:
OCI-Ly3 cells = assay: Inhibition of proliferation of OCI-Ly3 cells (CellTiter-Glo); format: cell-based, human; conditions: Homo sapiens, 96 h incubation, read-out: Inhibition test of proliferation of OCI-Ly3 cells IC50
Experimental: The compound's inhibitory effect on the proliferation of TMD8 and OCI-Ly3 cells was evaluated through cell proliferation inhibition experiments.
The compound's inhibitory effect on the proliferation of TMD8 and OCI-Ly3 cells was detected by the CellTiter-Glo method. The highest concentration of the compound detected was 1000 nM, 3-fold dilution, a total of 9 concentrations (1000 nM-0.15 nM). After the cells were plated at an appropriate density, compounds were added the next day and incubated for 96 h before detection using the CellTiter-Glo Luminescent detection kit.
(§1) Log(inhibitor) vs. response—Variable slope (four parameters) in GraphPad Prism 6 was used to perform fitting equation analysis on compound concentration and corresponding inhibition rate, the curve was fit and compound IC50 value was obtained.
(§2) The fitting calculation equation is Y=Bottom+(Top−Bottom)/(1+10^((Log IC50−X)*HillSlope))

[1] = target: Recombinant human MALT1/MLT protein (Homo sapiens (Human), UniProt Q9UDY8); assay: Inhibitory effect on MALT1 enzyme activity (Ac-LRSR-AMC substrate, fluorescence 460 nm); format: biochemical; conditions: 10 nM FL MALT1, Ac-LRSR-AMC substrate, 50 min pre-incubation, 4 h reaction
Experimental: Ac-LRSR-AMC was used as the substrate to test the IC50 of the inhibitory activity of compounds on MALT1 enzyme activity at their Km concentration.
Ac-LRSR-AMC was used as the substrate which was digested by MALT1 to produce products, which produced fluorescence that could be detected at 460 nm. The highest concentration of the compound detected was 1000 nM, 3-fold dilution, a total of 11 concentrations (1000 nM-0.017 nM). The reaction system is 10 nM FL MALT1 protein, […] Ac-LRSR-AMC, 50 mM Tris pH 7.5, 0.6M Citrate, 1 mM DTT, 1 mM EDTA, 0.05% BSA and 1.5% DMSO. The compound and the enzyme were pre-incubated at room temperature for 50 min. The substrate was then added and the reaction was carried out for 4 h.
The original data (460 nm reading) was calculated according to the following formula to obtain the inhibition rate.
as §1, §2

Recombinant human MALT1/MLT protein, sequence (Q9UDY8 whole entry): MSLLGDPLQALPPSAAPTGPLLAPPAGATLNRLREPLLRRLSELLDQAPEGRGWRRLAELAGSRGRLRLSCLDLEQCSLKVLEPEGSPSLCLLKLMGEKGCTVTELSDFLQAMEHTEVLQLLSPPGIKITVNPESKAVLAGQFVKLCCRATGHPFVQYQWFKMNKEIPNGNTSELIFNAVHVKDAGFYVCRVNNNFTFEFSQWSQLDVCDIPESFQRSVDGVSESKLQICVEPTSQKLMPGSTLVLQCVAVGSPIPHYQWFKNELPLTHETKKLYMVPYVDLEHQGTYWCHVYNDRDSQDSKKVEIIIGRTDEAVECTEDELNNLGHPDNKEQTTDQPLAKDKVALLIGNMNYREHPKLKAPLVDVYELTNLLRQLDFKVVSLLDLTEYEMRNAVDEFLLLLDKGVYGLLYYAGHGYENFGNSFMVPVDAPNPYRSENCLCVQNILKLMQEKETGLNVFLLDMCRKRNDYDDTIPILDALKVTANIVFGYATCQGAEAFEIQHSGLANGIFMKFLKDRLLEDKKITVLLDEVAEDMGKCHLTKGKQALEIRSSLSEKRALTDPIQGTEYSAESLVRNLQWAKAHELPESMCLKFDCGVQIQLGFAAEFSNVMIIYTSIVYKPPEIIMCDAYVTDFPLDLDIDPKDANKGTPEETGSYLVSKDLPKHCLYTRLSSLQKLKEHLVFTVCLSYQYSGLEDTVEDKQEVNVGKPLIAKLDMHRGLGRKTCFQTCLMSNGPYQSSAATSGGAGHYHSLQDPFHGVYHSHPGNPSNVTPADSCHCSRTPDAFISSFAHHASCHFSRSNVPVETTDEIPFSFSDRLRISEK

IC50 (OCI-Ly3 cells)	Structure (SMILES)	IC50 [1]
83 nM	O=C(Nc1ccc(-n2cccn2)c(C(F)(F)F)c1)c1cnn(-c2ccc3c4c(cccc24)C(=O)N3)c1C(F)(F)F [Example 51, N-(4-(1H-pyrazol-1-yl)-3-(trifluoromethyl)phenyl)-1-(2-carbonyl-1,2-dihydrobenzo[cd]indol-6-yl)-5-(trifluoromethyl)-1H-pyrazole-4-carboxamide]	
	O=C(Nc1cnc(-n2nccn2)c(Cl)c1)c1cnn(-c2ccc3c4c(cccc24)C(=O)N3)c1C(F)F [Example 67, N-(6-(2H-1,2,3-triazol-2-yl)-5-chloropyridin-3-yl)-5-difluoromethyl-1-(2-oxo-1,2-dihydrobenzo[cd]indol-6-yl)-1H-pyrazole-4-carboxamide]	48 nM
263 nM	Cc1nc(-c2ncc(NC(=O)c3cnn(-c4ccc5c6c(cccc46)C(=O)N5)c3C(F)(F)F)cc2C(F)(F)F)oc1C [Example 35, N-(6-(4,5-dimethyloxazol-2-yl)-5-(trifluoromethyl)pyridin-3-yl)-1-(2-carbonyl-1,2-dihydrobenzo[cd]indol-6-yl)-5-(trifluoromethyl)-1H-pyrazole-4-carboxamide]	
	Cn1cnc(-c2ncc(NC(=O)c3cnn(-c4ccc5c6c(cccc46)C(=O)N5)c3C(F)(F)F)cc2Cl)n1 [Example 45]	123 nM
128 nM	N#Cc1cc(-n2ncc(C(=O)Nc3ccnc(C(F)(F)F)c3)c2C(F)(F)F)c2cccc3c2c1NC3=O [Example 92, 1-(8-cyano-2-carbonyl-1,2-dihydrobenzo[cd]indol-6-yl)-5-(trifluoromethyl)-N-(2-(trifluoromethyl)pyridin-4-yl)-1H-pyrazole-4-carboxamide]	
266 nM	N#Cc1ccnn1-c1ncc(NC(=O)c2cnn(-c3ccc4c5c(cccc35)C(=O)N4)c2C(F)(F)F)cc1C(F)(F)F [Example 32]	
212 nM	O=C(Nc1cnc(-c2ncco2)c(C(F)(F)F)c1)c1cnn(-c2ccc3c4c(cccc24)C(=O)N3)c1C(F)(F)F [Example 34, N-(6-(oxazol-2-yl)-5-(trifluoromethyl)pyridin-3-yl)-1-(2-carbonyl-1,2-dihydrobenzo[cd]indol-6-yl)-5-(trifluoromethyl)-1H-pyrazole-4-carboxamide]	
	Cn1ccc(-c2ncc(NC(=O)c3cnn(-c4ccc5c6c(cccc46)C(=O)N5)c3C(F)(F)F)cc2C(F)(F)F)n1 [Example 37, N-(6-(1-methyl-1H-pyrazol-3-yl)-5-(trifluoromethyl)pyridin-3-yl)-1-(2-oxo-1,2-dihydrobenzo[cd]indol-6-yl)-5-(trifluoromethyl)-1H-pyrazole-4-carboxamide]	48 nM
	Cc1ncnn1-c1ncc(NC(=O)c2cnn(-c3ccc4c5c(cccc35)C(=O)N4)c2C(F)(F)F)cc1Cl [Example 47]	123 nM
	O=C(Nc1ccc(-n2nccn2)c(C(F)(F)F)c1)c1cnn(-c2cnc3c4c(cccc24)C(=O)N3)c1C1CC1 [Example 83, N-(4-(2H-1,2,3-triazol-2-yl)-3-(trifluoromethyl)phenyl)-5-cyclopropyl-1-(2-oxo-1,2-dihydropyrrolo[4,3,2-ij]isoquinolin-6-yl)-1H-pyrazole-4-carboxamide]	50 nM
	O=C(Nc1ccnc(C(F)(F)F)c1)c1cnn(-c2ccc3c4c(cccc24)OC3)c1C(F)(F)F [Example 15, 1-(2H-naphthalene [1,8-bc]furan-5-yl)-5-trifluoromethyl-N-(2-trifluoromethyl-pyridin-4-yl)-1H-pyrazole-4-carboxamide]	169 nM
234 nM	O=C(Nc1ccc(-n2cccn2)c(C(F)(F)F)c1)c1cnn(-c2cnc3c4c(cccc24)C(=O)N3)c1C(F)(F)F [Example 74, N-(4-(1H-pyrazol-1-yl)-3-(trifluoromethyl)phenyl)-1-(2-carbonyl-1,2-dihydropyrrolo[4,3,2-ij]isoquinolin-6-yl)-5-(trifluoromethyl)-1H-pyrazole-4-carboxamide]	
